Experimental data taken from ChEMBL document CHEMBL5038650, “In Vitro and In Vivo Inhibition of the Mycobacterium tuberculosis Phosphopantetheinyl Transferase PptT by Amidinoureas” (J Med Chem, 2022).

target: Voltage-gated inwardly rectifying potassium channel KCNH2 (Homo sapiens, UniProt Q12809)
Sequence (Q12809 whole entry): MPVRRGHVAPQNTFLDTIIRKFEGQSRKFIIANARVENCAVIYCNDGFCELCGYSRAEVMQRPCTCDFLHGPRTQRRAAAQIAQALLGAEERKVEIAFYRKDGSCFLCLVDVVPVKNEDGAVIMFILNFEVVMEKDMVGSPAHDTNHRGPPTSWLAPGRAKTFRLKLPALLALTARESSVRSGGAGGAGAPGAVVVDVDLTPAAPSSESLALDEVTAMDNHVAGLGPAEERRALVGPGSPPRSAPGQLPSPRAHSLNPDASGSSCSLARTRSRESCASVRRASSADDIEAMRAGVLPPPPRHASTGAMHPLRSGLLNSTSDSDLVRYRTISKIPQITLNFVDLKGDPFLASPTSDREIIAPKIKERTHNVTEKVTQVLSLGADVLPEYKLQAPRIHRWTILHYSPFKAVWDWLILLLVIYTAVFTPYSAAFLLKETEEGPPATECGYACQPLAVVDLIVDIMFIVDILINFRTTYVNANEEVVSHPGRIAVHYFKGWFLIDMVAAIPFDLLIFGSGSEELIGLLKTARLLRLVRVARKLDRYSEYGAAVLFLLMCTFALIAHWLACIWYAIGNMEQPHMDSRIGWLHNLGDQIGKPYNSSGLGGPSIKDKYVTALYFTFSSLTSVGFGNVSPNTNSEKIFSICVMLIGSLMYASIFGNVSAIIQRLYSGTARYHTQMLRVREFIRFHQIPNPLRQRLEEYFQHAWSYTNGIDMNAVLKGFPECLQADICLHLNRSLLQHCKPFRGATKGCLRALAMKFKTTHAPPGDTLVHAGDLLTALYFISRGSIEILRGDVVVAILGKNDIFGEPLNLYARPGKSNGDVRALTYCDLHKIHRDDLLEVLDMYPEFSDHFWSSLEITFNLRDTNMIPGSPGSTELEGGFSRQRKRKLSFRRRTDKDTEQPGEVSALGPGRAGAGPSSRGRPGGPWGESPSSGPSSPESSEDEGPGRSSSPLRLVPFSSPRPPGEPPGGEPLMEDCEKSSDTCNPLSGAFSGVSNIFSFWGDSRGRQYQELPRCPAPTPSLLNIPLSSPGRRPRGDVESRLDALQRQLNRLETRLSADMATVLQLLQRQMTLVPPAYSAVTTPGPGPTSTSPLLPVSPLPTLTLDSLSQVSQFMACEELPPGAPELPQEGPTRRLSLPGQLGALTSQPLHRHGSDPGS
Description: Inhibition of hERG expressed in HEK cells by patch clamp method

Row | Structure (SMILES) | IC50 [µM]
1 | CCNC(=N)NC(=O)Nc1c(CC)cc(S(=O)(=O)NCC)cc1CC | > 30
2 | CCNC(=N)NC(=O)Nc1c(CC)cc(C(=O)NCc2ccccc2)cc1CC | > 30
3 | CCNC(=N)NC(=O)Nc1c(CC)cc(NS(=O)(=O)c2ccccc2)cc1CC | > 30
4 | CCNC(=N)NC(=O)Nc1c(CC)cc(C(=O)NC(C)C)cc1CC | > 30
